Laboratory results taken from patent US8193200B2, “Antagonists of A2B adenosine receptors for treatment of inflammatory bowel disease” (University of Virginia Patent Foundation, priority 2007, dated 2012).

Legend:
IL-6 and KC secretion = assay: IL-6 and KC ELISA in colon organ culture supernatants, IL-10-/- model; format: in vivo, mouse
Method: In the DSS-model proinflammatory cytokines were measured by real time PCR. Total RNA was extracted from DSS treated, DSS+ATL-801 and control colonic tissue using the TRizol reagent. After quantification, a reverse transcription (RT) reaction was performed with 2 μg of each sample and oligo-dT primer, using the SuperScript First strand synthesis system for RT-PCR (Invitrogen, CA). The real-time iCycler sequence detection system (Bio-Rad) was used for the real-time RT-PCR. Briefly, 3 ng of reverse transcribed cDNA, 500 nM of gene-specific primers and the iQ SYBR Green Supermix (Biorad, Hercules, Calif.) were amplified at 50° C. for 2 min and 95° C. for 10 min, followed by 40 cycles of 95° C. for 15 s and 60° C. for 1 min. The 36B4 expression levels were used as reference, and fold-induction was calculated using a standard curve. For graphical representation of quantitative PCR data, raw cycle threshold values (Ct values) obtained for treated mice were deducted from the Ct value obtained for internal 36B4 transcript levels, using the Ct method as follows: ΔΔCT=(Ct Target−Ct 36B4)treatment−(Ct Target−Ct 36B4) no treatment, and the final data were derived from 2^−ΔΔCT. Primers used: IL-6 sense 5′-ACAAGTCGGAGGCTTAATTACACAT-3′ (SEQ ID NO:1) antisense 5′-TTGCCATTGCACAACTCTTTTC-3′ (SEQ ID NO:2), MIP-2 sense 5AGT GAA CTG CGC TGT CAA TGC-3′ (SEQ ID NO:3) antisense 5′ AGGCAAACTTTTTGACCGCC 3′ (SEQ ID NO:4). In IL-10−/− model proinflammatory cytokines were measured by ELISA in organ cultures. Colon organ cultures were prepared from IL-10^−/− mice with and with out ATL-801 along with piroxicam. Colons were dissected from mice and flushed with cold PBS to remove fecal matter. Each colon was cut in to 1 cm length and washed in HBSS with pencillin/streptomycin and cultured in serum free RPMI-1640 supplemented with penicillin and streptomycin. […] Supernatants were harvested after 24 hours, centrifuged and stored at −80° C. before IL-6 and keratinocyte derived chemokine, KC levels were measured by ELISA. […] IL-8 was measured in the supernatants by ELISA.

[1] = tested on: colonic crypt epithelial cells; assay: ki67 proliferation and TUNEL apoptosis staining, IL-10-/- model; format: in vivo, mouse; conditions: IL-10-/- mice, piroxicam+ATL-801
Method: Apoptosis: Apoptotic cells were determined in colonic crypts of the mice that received ATL-801. Apoptotic cells were identified by fluorescent double staining using caspase-3 and terminal deoxyuridine nick-end labeling (TUNEL) as a secondary method to detect apoptosis. After deparaffinization and hydration, paraffin sections of colon were retrieved for antigens in a pressure cooker with sodium citrate (pH 6.0, 10 mM) for 10 min. After cooling, the sections were quenched in 3% H2O2 in methanol and then blocked with normal goat serum. Caspase-3 was detected with rabbit anti-cleaved-caspase-3 IgG overnight at 4° C. followed by a labeled streptavidin-biotin (LSAB) staining method consisting of successive application of secondary antibody-streptavidin, biotin-horseradish peroxidase, and cyanine-3 tyramide. TUNEL immunohistochemistry was performed using the in situ cell death detection kit, fluorescein, as described by the manufacturer (Roche Applied Science, Indianapolis, Ind.). For IL-10 model, frozen sections were used to stain cleaved caspase 3 and TUNEL. Nuclei were attained by Hoechst to count total crypt cell number. The apoptotic index for both morphologically defined apoptotic cells and fluorescent staining with caspase-3 was calculated as the number of apoptotic cells per crypt. […]

CCCn1c(=O)n(C2CC2)c(=O)c2[nH]c(-c3ccc(N(CC)C(=O)c4cccnc4)nc3)nc21 [ATL-801]
effect of ATL-801 alone on IL-6 or IL-8 levels (IL-6 and KC secretion; ATL-801 alone (data not shown)): no effect | IL-6 levels in colon culture supernatant (IL-6 and KC secretion; IL-10-/- mice, piroxicam + ATL-801, 24 h culture, piroxicam alone 1.9±0.3, untreated 0.7±0.1): 0.46 ± 0.1 ng/mL | KC secretion in colon culture supernatant (IL-6 and KC secretion; IL-10-/- mice, piroxicam+ATL-801, piroxicam alone 5.6±0.6): 3.7 ± 0.8 ng/mL | TUNEL positive cells out of total (around 500) number of cells counted in each crypt ([1]; control 4.7±1.5, piroxicam 4.3±2.3): 10±1.0 | proliferation index, ki67 positive staining ([1]; control 8.0±0.7, piroxicam alone 28.8±2.8): 18.5±1.4
